Read-outs that look alike come from different tables or passages of the source.
What was measured:
[1] = tested on: ApoE; assay: Pharmacodynamic analysis of ApoE in peripheral blood lymphocytes (qRT-PCR); format: in vivo, mouse; conditions: mice
Protocol: In Vivo Dosing and Sample Collection: 6-7 week old […] received a single dose of Compound 8 at 52.6 mg/kg, formulated in 2% DMSO/20% Propylene Glycol/78% 0.5% Methylcellulose (400 cp) at a final concentration of 4.62 mg/mL by oral gavage. Bleeds were taken at 0.5 h, 2 h, 4 h, 8 h, 16 h, 24 h and 48 h. Mice were bled twice, the first bleed was drawn submandibular and the second through intracardiac puncture. Blood was collected in Dipotassium EDTA Microtainer tubes (02-669-38, Fisher). To isolate peripheral blood lymphocytes, blood samples were centrifuged at 2000 g for 5 min. After separation of the plasma, Erythrocytes were lysed in 1 mL Erythrocyte Lysis (EL) buffer (79217, Qiagen) and incubation at room temperature for 20 min. Samples were centrifuged at 400 g for 10 min, and peripheral blood lymphocytes washed once in EL buffer, followed by one wash in PBS.
ApoE Gene Expression Analysis by qRT-PCR: RNA was extracted from peripheral blood lymphocytes using the Total RNA Purification Micro Kit (35300, Norgen, Thorold, Canada). 200-300 ng of total RNA was then reverse transcribed into cDNA using the Verso cDNA synthesis Kit (AB-1453B, Fisher Scientific) and 6 ng of the resulting cDNA was mixed with SYBR Green PCR Mater Mix (4385612, Applied Biosystems) and quantitative real-time PCR amplification was performed using an ABI Prism 7900HT Real-Time PCR System (Applied Biosystems, Austin, Tex.). Each PCR reaction was carried out in quadruplicates. Gene expression was normalized to GAPDH, which was used as an endogenous control. Primers used as described in Example 86.
Results: The results of ApoE induction in vivo by compound 8 is shown in Table 9 where Pre-Dose represents endogenous levels of ApoE induction prior to dosing, n is the number of samples analyzed, and values are expressed as fold induction over pre-dose endogenous ApoE levels (normalized to 1.0). Peak induction of compound 8 is >6-fold over background at 4 h.

[2] = tested on: B16F10 melanoma cells; assay: In vivo primary tumor growth assay; design: species or system mouse; conditions: B16F10 in C57B16 mice
Protocol: For primary tumor growth studies, 5×10^4 B16F10 melanoma cells were mixed 1:1 with matrigel and subcutaneously injected into the lower flanks of 6-week old C57B16 mice. Upon the formation of palpable tumors, 4-5 days after tumor cell injection, 10 mice were randomly assigned to groups eating a control diet or a diet supplemented with compound 8 (5 and 25 mg/kg). Tumor volume was calculated as (small diameter)^2×(large diameter)/2 and tumor growth inhibition was measured relative to vehicle control.

[3] = tested on: ApoE; assay: ApoE gene expression analysis by qRT-PCR in MeWo cancer cells; format: cell-based; conditions: Homo sapiens, MeWo, 48 h; for Emax at 1 µM / Emax at 10 µM: read-out: ApoE gene expression in relation to GW3965 at 1 μM (100%)
Protocol: Cancer cells (MeWo) were treated in presence of drug or control (DMSO) at indicated concentrations for 48 h. RNA was extracted from whole cell lysates using the Total RNA Purification Kit (17200, Norgen, Thorold, Canada). 600 ng of total RNA was then reverse transcribed into cDNA using the Verso cDNA Synthesis Kit (AB-1453/B, Fisher Scientific). 6 ng of the resulting cDNA was then mixed with SYBR green PCR Master Mix (4309155, Applied Biosystems) and the appropriate primers. Each reaction was performed in quadruplicate, and mRNA expression was quantified by performing real-time PCR amplification using a StepOne Plus Real-Time PCR System (Applied Biosystems). GAPDH was used as an endogenous control for normalization. EC50 values were calculated using Prism6 software and plotting expression values versus drug concentration. The following primers were used: [table] The results are shown in relation to GW3965 ApoE expression at 1 μM (i.e. 100%).

[4] = tested on: Cancer cells (MeWo); assay: Matrigel invasion assay; format: cell-based; conditions: 1 μM drug, invasion 24 h
Protocol: Cancer cells (MeWo) were pre-treated in presence of 1 μM drug or control (DMSO) for 72 h after which cancer cells were switched to serum-starvation in 0.2% FBS DMEM-based media for 16 h in the presence of the drug or control, respectively. Trans-well invasion chambers (354480, BD Biosciences, Bedford, Mass.) were pre-equilibrated in DMEM-based media prior to the beginning of the assay by adding 0.5 ml of starvation media to the top and bottom chambers. After 30 min, the media in the top chamber was removed, and 0.5 ml of media containing 1×10^5 cancer cells in the presence of the drug, was added into each matrigel-coated trans-well insert. Cells were allowed to invade through the matrigel-coated inserts for 24 h at 37° C.

[5] = target: LXRβ (Homo sapiens (Human), UniProt P55055); assay: ligand sensing assay (LiSA), LXRβ; format: biochemical; conditions: ratio of EC50 values
Sequence of LXRβ (P55055 whole entry): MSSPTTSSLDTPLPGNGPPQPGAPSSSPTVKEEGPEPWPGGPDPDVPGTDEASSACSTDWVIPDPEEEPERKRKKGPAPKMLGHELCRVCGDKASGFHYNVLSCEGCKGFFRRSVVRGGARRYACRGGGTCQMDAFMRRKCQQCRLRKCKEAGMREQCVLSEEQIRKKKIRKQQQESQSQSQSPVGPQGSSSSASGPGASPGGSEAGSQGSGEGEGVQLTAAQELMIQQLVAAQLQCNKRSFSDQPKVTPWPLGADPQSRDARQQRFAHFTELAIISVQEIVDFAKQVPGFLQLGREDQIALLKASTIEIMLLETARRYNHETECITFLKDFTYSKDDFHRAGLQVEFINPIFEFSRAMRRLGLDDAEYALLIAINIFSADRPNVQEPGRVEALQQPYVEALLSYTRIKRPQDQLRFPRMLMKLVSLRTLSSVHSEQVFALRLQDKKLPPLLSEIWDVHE
Source text: As used herein, reference to the activity of an LXR agonist at LXRα and LXRβ refer to the activity as measured using the ligand sensing assay (LiSA) described in Spencer et al. J. Med. Chem. 2001, 44, 886-897, incorporated herein by reference. […] For example, the methods of the invention can be performed using an LXRβ agonist having activity for LXRβ that is at least 3-fold greater than the activity of the agonist for LXRα, or having activity for LXRβ that is at least 10-fold greater than the activity of the agonist for LXRα, or having activity for LXRβ that is at least 100-fold greater than the activity of the agonist for LXRα, or having activity for LXRβ that is at least within 3-fold of the activity of the agonist for LXRα. The term “greater activity” in the LiSA assay refers to a lower EC50.

[6] = tested on: Aβ plaque burden; conditions: mouse model of Alzheimer's disease, Jiang et al., Neuron 2008; cited from earlier work

Compound | Fold ApoE Induction Over Pre-Dose Level (+/−S.D.) ([1]; 0.5 h after single oral dose 52.6 mg/kg) | Fold ApoE Induction Over Pre-Dose Level (+/−S.D.) ([1]; 2 h after single oral dose 52.6 mg/kg) | Fold ApoE Induction Over Pre-Dose Level (+/−S.D.) ([1]; 4 h after single oral dose 52.6 mg/kg) | Fold ApoE Induction Over Pre-Dose Level (+/−S.D.) ([1]; 8 h after single oral dose 52.6 mg/kg) | Fold ApoE Induction Over Pre-Dose Level (+/−S.D.) ([1]; 16 h after single oral dose 52.6 mg/kg) | Fold ApoE Induction Over Pre-Dose Level (+/−S.D.) ([1]; 24 h after single oral dose 52.6 mg/kg) | Fold ApoE Induction Over Pre-Dose Level (+/−S.D.) ([1]; 48 h after single oral dose 52.6 mg/kg) | Mean tumor volume (mm3) (+/−S.E.M.) ([2]; 5 mg/kg in diet) | Tumor growth inhibition % of control (+/−S.E.M.) ([2]; 5 mg/kg in diet) | Mean tumor volume (mm3) (+/−S.E.M.) ([2]; 25 mg/kg in diet) | EC50 [3] [nM] | Emax at 1 µM [3] [%] | Emax at 10 µM [3] [%] | % of Cells Migrated Compared to Control [4] [%] | fold greater activity for LXRβ compared to LXRα [5] | Emax at 1 µM ([3]; reference value) [%] | amyloid-beta plaques [6]
CS(=O)(=O)c1cc(OCCCN(Cc2cccc(C(F)(F)F)c2Cl)CC(c2ccccc2)c2ccccc2)cc(F)c1CO [Compound 8, {4-[3-({[2-chloro-3-(trifluoromethyl)phenyl]methyl}(2,2-diphenylethyl)amino)propoxy]-2-fluoro-6-methanesulfonylphenyl}methanol] | 1.3 (+/−0.3) fold | 2.7 (+/−0.5) fold | 6.3 (+/−1.8) fold | 3.8 (+/−2.4) fold | 0.3 (+/−0.4) fold | 0.4 (+/−0.6) fold | 0.1 (+/−0.3) fold | 686 (+/−97) mm3 | 13% (+/−12%) | 475 (+/−56) mm3 | < 1000 | > 80 | > 80 | <50 | – | – | –
C[C@H](CCO[C@H]1CCCN(S(C)(=O)=O)C1)N(Cc1cccc(C(F)(F)F)c1Cl)CC(c1ccccc1)c1ccccc1 [Compound 31, {[2-chloro-3-(trifluoromethyl)phenyl]methyl}(2,2-diphenylethyl)[(2R)-4-{[(3S)-1-methanesulfonylpiperidin-3-yl]oxy}butan-2-yl]amine] | – | – | – | – | – | – | – | – | – | – | < 1000 | > 40 | > 80 | <70 | – | – | –
O=C(O)Cc1cccc(OCCCN(Cc2cccc(C(F)(F)F)c2Cl)CC(c2ccccc2)c2ccccc2)c1 [GW3965, reference compound] | – | – | – | – | – | – | – | – | – | – | < 300 | – | > 40 | <70 | approximately 6 fold | 100 | therapeutic reduction of amyloid-beta plaques
CC(CCOc1cccc(CC(=O)O)c1)N(Cc1cccc(C(F)(F)F)c1Cl)CC(c1ccccc1)c1ccccc1 (stereo not shown) [SB742881, reference compound] | – | – | – | – | – | – | – | – | – | – | < 1000 | > 40 | > 40 | <70 | – | – | –

Source: US10669296B2, “LXR agonists and uses thereof” (Rgenix, Inc., priority 2014, dated 2020)
